Where two headings read alike, the source gives them in different places.
Tests used:
[1] = system: Herpes simplex 1; format: in vivo, NMRI mice; conditions: for Survivors: groups of 5 mice
Description: The treatment was performed twice daily, starting after the infection. The substances were administered to the experimental animals 5 or 9 times (see Table 1).
The chemotherapeutic action can be seen from Table 1.

[2] = in vitro; conditions: hela and vero cells
[3] = po 9 × 0 mg/kg (so in the source)

Structure (SMILES)	Average survival time ([1]; po 5 × 2.5 mg/kg) [days]	Survivors ([1]; po 5 × 2.5 mg/kg)	Average survival time ([1]; po 5 × 25 mg/kg) [days]	Survivors ([1]; po 5 × 25 mg/kg)	Average survival time ([1]; sc 5 × 2.5 mg/kg) [days]	Survivors ([1]; sc 5 × 2.5 mg/kg)	Average survival time ([1]; sc 5 × 25 mg/kg) [days]	Survivors ([1]; sc 5 × 25 mg/kg)	Average survival time ([1]; sc 5 × 250 mg/kg) [days]	Survivors ([1]; sc 5 × 250 mg/kg)	also measured
CCOP(=O)(Cc1ccccc1C)OCC [E, diethyl 2-methylbenzylphosphonate]	–	–	–	–	–	–	–	–	–	–	Average survival time [1, 3]: 7.0 days; Survivors [1, 3]: 2; Average survival time ([1]; po 9 × 3 mg/kg): 5.7 days; Survivors ([1]; po 9 × 3 mg/kg): 1; Average survival time ([1]; po 9 × 30 mg/kg): 7.5 days; Survivors ([1]; po 9 × 30 mg/kg): 3; Average survival time ([1]; sc 9 × 3 mg/kg): 6.3 days; Survivors ([1]; sc 9 × 3 mg/kg): 1; Average survival time ([1]; sc 9 × 10 mg/kg): 6.5 days; Survivors ([1]; sc 9 × 10 mg/kg): 3; Average survival time ([1]; sc 9 × 30 mg/kg): 6.7 days; Survivors ([1]; sc 9 × 30 mg/kg): 2
COP(=O)(Cc1ccccc1C)OC [A, dimethyl 2-methylbenzylphosphonate]	10.5	3	9.0	3	12.0	2	9.0	4	9.0	4	–
Cc1ccccc1CP(=O)(OC(C)C)OC(C)C [L, diisopropyl 2-methylbenzylphosphonate]	–	5	8.7	2	8.3	1	7.4	0	6.5	3	Average survival time ([1]; po 5 × 250 mg/kg): 8.7 days; Survivors ([1]; po 5 × 250 mg/kg): 2
CCOP(=O)(Cc1cc(C)ccc1C)OCC [K, diethyl 2,5-dimethylbenzylphosphonate]	–	–	–	–	7.4	0	8.6	0	8.0	3	–
Cc1ccccc1CP(=O)(O)O [O, di-triethylammonium 2-methylbenzylphosphonate]	–	–	–	–	–	–	–	–	–	–	MNTC [2]: 133 µg/mL
CCOP(=O)(Cc1ccc(Br)cc1)OCC [D, diethyl 4-bromobenzylphosphonate]	7.0	2	6.0	3	8.5	3	8.0	4	–	–	Average survival time ([1]; po 5 × 0.25 mg/kg): 8.7 days; Survivors ([1]; po 5 × 0.25 mg/kg): 2; Average survival time ([1]; po 9 × 3 mg/kg): 8.0 days; Survivors ([1]; po 9 × 3 mg/kg): 4; Average survival time ([1]; po 9 × 10 mg/kg): 8.3 days; Survivors ([1]; po 9 × 10 mg/kg): 2; Average survival time ([1]; po 9 × 30 mg/kg): 10.5 days; Survivors ([1]; po 9 × 30 mg/kg): 3; Average survival time ([1]; sc 5 × 0.25 mg/kg): 9.0 days; Survivors ([1]; sc 5 × 0.25 mg/kg): 1
CCCCOP(=O)(Cc1ccccc1C)OCCCC [M, di-n-butyl 2-methylbenzylphosphonate]	–	–	–	–	7.0	4	7.5	3	7.7	1	–
CCOP(=O)(Cc1ccccc1Br)OCC [C, diethyl 2-bromobenzylphosphonate]	6.7	2	8.5	3	–	–	–	–	–	–	Average survival time ([1]; po 5 × 250 mg/kg): 8.0 days; Survivors ([1]; po 5 × 250 mg/kg): 2

From US5242908A, “Use of benzylphosphonic acid derivatives for the treatment of diseases caused by viruses” (priority 1990, dated 1993)
